Data taken from publication PMC11952641, “A Novel D-peptide modulates DCLK1 Gelsolin interactions, reducing PDAC tumor growth” (Research Square, 2025).
Each block holds one molecule with its values, some of them ahead of it. Non-standard residues stand in square brackets, D forms with d. Residues, ends and D or L forms follow the SMILES beside them.

What was measured:
[1] = molecular target: T1, DCLK1 isoform 4 (human His-tagged DCLK1 C-terminal recombinant protein) (Homo sapiens, UniProt O15075); assay: BLI evaluation of D-peptide binding to DCLK1 NKEBD; conditions: DCLK1 isoform 4 immobilized on biosensor, PBS/0.05%Tween20/1%DMSO, from 30 μM in a 1:3 series
T1 sequence (O15075 687-740 limits assumed): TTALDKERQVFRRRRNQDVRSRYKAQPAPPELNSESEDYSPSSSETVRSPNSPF
Experimental: (§1) Purification of human DCLK1 isoform 4 was performed at the University of Oklahoma Protein Production and Characterization Core Facility (Norman, OK) using an E. coli strain BL21(DE3) pLPP containing the pET19-DCLK1 isoform 4 plasmid. For Bio-layer Interferometry (BLI) experiments, a C-terminal DCLK1 isoform 2/4 His-tagged protein was used (NovoPro, Shanghai, China). All His-tagged proteins were dialyzed using PBS/glycerol to remove imidazole.
Human His-tagged DCLK1 C-terminal recombinant protein from NovoPro was used. Binding to the sensor was carried out in PBS/0.05%Tween20/1%DMSO. Response is measured as a nm shift in the interference pattern and is proportional to the number of molecules bound to the biosensor’s surface. Initially, all peptides were tested at 5 and 30 μM. The top binders were tested again with eight different concentrations, starting at 30 μM and diluted in a 1:3 series to determine the dissociation constant (KD).

DCLK1 isoform 4 [2] = assay: D-peptide library screen for binding to DCLK1 isoform 4, excluding isoform 1 binders; set-up: species or system human; conditions: bead library screen, biotin-labeled DCLK1 isoform 4
Experimental: An aliquot from each sub-library, containing approximately 1000 beads, was added to a well of a 96-well polystyrene multi-well plate. From 1.5 to 2 ml of Superblock (Pierce Chemical Company, Rockford, IL.) reagent, 0.1% gelatin, or 1%(w/v) bovine serum albumin (BSA) in phosphate-buffered saline (PBS), pH 7.4, was added to each well, and the plates were incubated for one to two hours at room temperature (RT), with periodic or continuous mixing by gentle rocking. Purified DCLK1 isoform 4 protein was labeled with biotin using the biotinylating reagent NHS-LC-biotin (Pierce Chemical Company) according to the supplier’s instructions. Biotin-labeled protein was detected using AP-conjugated to neutravidin (Pierce Chemical Company) incubated with the beads for 30 minutes, after which the beads were washed three times with a Tris-buffered saline solution (pH 7.5), with the second wash being left in contact with the beads for 30 minutes. One-step NBT/BCIP (nitro-blue tetrazolium chloride/5-bromo-4-chloro-3’-indolyphosphate p-toluidine salt) (Pierce Chemical Co.) was then added and the beads observed under a low-power microscope until some of the beads had turned a dark purple color. The beads were washed with PBS twice, followed by 1% acetic acid and a final wash in water. Dark purple-black beads were removed using a small-bore pipette and subjected to amino acid sequence analysis. […]

DCLK1 isoform 1 = assay: Cross-reactivity to DCLK1 isoform 1; assay type: binding, human
DCLK1 isoform 4 / CBT-15 = assay: Competition assay: CBT-15 binding to DCLK1 isoform 4; set-up: species or system human; conditions: Fig. 1D, mean ± SEM, *p < 0.01
[3] = system: AsPC-1 pancreatic cancer cells; assay: Colony formation assay, AsPC-1; assay type: cell-based; conditions: Fig. 2A, blinded study
[4] = system: Capan-1 pancreatic cancer cells; assay: Colony formation assay, Capan-1; assay type: cell-based; conditions: Fig. 2B, blinded study
AsPC-1 xenografts = assay: AsPC-1 xenograft tumor growth in athymic nude mice; assay type: in vivo, athymic nude (Foxn1nu/Foxn1nu) mice; conditions: 10 mg/kg subcutaneously every three days; day 36
Experimental: Athymic nude (Foxn1^nu/Foxn1^nu) mice were purchased from the Jackson Laboratory (Bar Harbor, Maine) and housed in pathogen-free conditions. AsPC-1 cells (1 × 10^7) were injected subcutaneously into the flanks of 4- to 6-week-old mice (n=3/group). Tumors were measured using a caliper and the volume was calculated as (length × width^2) × 0.5. Once tumors achieved an average size of ~100 mm^3, mice were injected subcutaneously with selected D-peptides at a dose of 10 mg/kg. Treatments were continued every three days until day 36.

DCLK1 isoform 4-pGSN = assay: ELISA: effect of peptides on DCLK1-Gelsolin PPI; assay type: binding, human; conditions: peptide 20 mg/well (so in the source), pGSN 2 μg/ml, Fig. 3H
Experimental: as §1
(§2) Polystyrene microtitre Immulon 2HB plate was coated with freshly prepared (400 ng/50 ml) DCLK1 isoform 4 ([…]) in 0.1 M NaHCO3, pH 8.6, overnight at 4C. After blocking with 1% gelatin in TTBS at RT, different concentrations of gelsolin or FGF19 were added (2 mg/50ul/well, 1 mg/well, 0.5 mg/well, and 0.25 mg/well at […], proteins diluted in TTBS), and incubated at RT. To study the competitive ability of peptides, we used 20 mg/well of either D-peptide 1, D-peptide 3, D-peptide 5, or the C-terminal peptide antigen for the mAb CBT-15. After incubation at RT, plates were washed with TTBS, and bound gelsolin or FGF19 was detected. […] Detection was by alkaline phosphatase-conjugated goat anti-mouse IgG (ab97020; Abcam, Waltham, MA) followed by 1-STEP NBT/BCIP substrate (#34042; ThermoFisher Scientific, Waltham, MA) and quantified at 450 nm on a microplate reader.

DCLK1 isoform 4 [5] = assay: ELISA: FGF19 binding to DCLK1 isoform 4; set-up: species or system human; conditions: RT, 450 nm, Fig. 3H
Experimental: as §1, §2

DCLK1 isoform 4 [6] = assay: SPR binding to DCLK1 isoform 4; set-up: species or system human; conditions: DCLK1 isoform 4 binding to Gelsolin, Fig. 3F
Experimental: as §1

DCLK1 isoform 4 [7] = assay: ELISA: pGSN binding to DCLK1 isoform 4; set-up: species or system human; conditions: 1% gelatin blocking, RT, 450 nm, Fig. S2
Experimental: as §1, §2

plasma gelsolin = molecular target: T2, plasma gelsolin (UniProt P06396 28-782); assay: SPR; who was immobilised and the conditions not given; conditions: both partners purified
T2 construct: plasma gelsolin (pGSN), the extracellular form of gelsolin; The source is told for the ELISA only; also called pGSN; source: bought: Abcam (ab233671)
T2 sequence (P06396 28-782): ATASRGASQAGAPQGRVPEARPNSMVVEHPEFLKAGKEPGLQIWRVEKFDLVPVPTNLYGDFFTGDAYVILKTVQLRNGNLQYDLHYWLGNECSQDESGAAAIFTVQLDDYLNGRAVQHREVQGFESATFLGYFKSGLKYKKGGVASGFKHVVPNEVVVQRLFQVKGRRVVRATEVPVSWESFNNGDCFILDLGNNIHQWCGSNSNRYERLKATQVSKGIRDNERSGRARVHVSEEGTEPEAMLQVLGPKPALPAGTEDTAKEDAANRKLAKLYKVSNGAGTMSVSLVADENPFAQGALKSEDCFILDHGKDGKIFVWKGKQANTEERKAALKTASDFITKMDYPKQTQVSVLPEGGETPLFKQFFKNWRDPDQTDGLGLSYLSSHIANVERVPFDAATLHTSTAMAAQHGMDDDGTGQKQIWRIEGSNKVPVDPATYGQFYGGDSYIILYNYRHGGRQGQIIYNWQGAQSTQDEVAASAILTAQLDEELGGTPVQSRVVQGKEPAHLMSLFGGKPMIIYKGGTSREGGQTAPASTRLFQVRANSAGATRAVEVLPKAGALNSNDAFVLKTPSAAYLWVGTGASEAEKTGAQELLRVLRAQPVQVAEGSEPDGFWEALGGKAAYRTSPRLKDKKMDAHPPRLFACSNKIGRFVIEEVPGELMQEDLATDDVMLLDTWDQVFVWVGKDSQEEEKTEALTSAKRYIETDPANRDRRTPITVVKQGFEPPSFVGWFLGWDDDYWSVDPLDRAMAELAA

Molecule: NCC(=O)N[C@H](Cc1c[nH]c2ccccc12)C(=O)N[C@H](Cc1ccc(O)cc1)C(=O)NCC(=O)N[C@H](Cc1c[nH]c2ccccc12)C(=O)NCC(=O)N[C@H](CC(=O)O)C(=O)N[C@H](CC(=O)O)C(=O)O [D-peptide 1] (H-G[dW][dY]G[dW]G[dD][dD]-OH)
- Kd [1]: 396 nM
- specific binding to isoform 4 (DCLK1 isoform 4 [2]): binds specifically to DCLK1 isoform 4
- cross-reactivity to isoform 1 (DCLK1 isoform 1): minimal cross-reactivity to isoform 1
- inhibition of CBT-15 binding to DCLK1 isoform 4 (DCLK1 isoform 4 / CBT-15): None of these D-peptides significantly inhibited CBT-15 binding
- colony formation [3]: significantly reduced colony formation at low micromolar concentrations
- colony formation [4]: significantly reduced colony formation at low micromolar concentrations
- necrosis or apoptosis in tumors (AsPC-1 xenografts): without inducing necrosis or apoptosis
- effect on pGSN binding to DCLK1 isoform 4 (DCLK1 isoform 4-pGSN): did not block the PPI interaction
- improvement of pGSN binding to DCLK1 (DCLK1 isoform 4-pGSN): seemed to improve pGSN binding to DCLK1

Molecule: FGF19: candidate DCLK1 interacting protein known to be extracellularly localized (969-FG-025; Bio-Techne)
- binding to DCLK1 isoform 4 (DCLK1 isoform 4 [5]): bound to DCLK1 isoform 4 similarly to pGSN

- Kd (DCLK1 isoform 4 [6]): ~100 nM
- binding to DCLK1 isoform 4 across the gradient (DCLK1 isoform 4 [7]): consistent, linear binding
Molecule: Gelsolin

- Kd (plasma gelsolin): ~100 nM
B1: human DCLK1 isoform 4 (β-short) (natural protein, UniProt O15075-4 1-433, looked up)
chain: MLELIEVNGTPGSQLSTPRSGKSPSPSPTSPGSLRKQRSSQHGGSSTSLASTKVCSSMDENDGPGEEVSEEGFQIPATITERYKVGRTIGDGNFAVVKECVERSTAREYALKIIKKSKCRGKEHMIQNEVSILRRVKHPNIVLLIEEMDVPTELYLVMELVKGGDLFDAITSTNKYTERDASGMLYNLASAIKYLHSLNIVHRDIKPENLLVYEHQDGSKSLKLGDFGLATIVDGPLYTVCGTPTYVAPEIIAETGYGLKVDIWAAGVITYILLCGFPPFRGSGDDQEVLFDQILMGQVDFPSPYWDNVSDSAKELITMMLLVDVDQRFSAVQVLEHPWVNDDGLPENEHQLSVAGKIKKHFNTGPKPNSTAAGVSVIATTALDKERQVFRRRRNQDVRSRYKAQPAPPELNSESEDYSPSSSETVRSPNSPF
modifications: biotin (NHS-LC-biotin) in the library screen only
notes: human DCLK1 isoform 4 (β-short, NP_001182345); also called Doublecortin-like kinase 1 isoform 4; beta-short; source: E. coli BL21(DE3) pLPP with the pET19-DCLK1 isoform 4 plasmid, purified
